Experimental data published in ChEMBL document CHEMBL5241138, “Inhibitors of Interleukin 4 Induced Protein 1 (IL4I1) as Potential Treatment for Cancer” (ACS Med Chem Lett, 2023).

Molecular target: T1, L-amino-acid oxidase (Homo sapiens, UniProt Q96RQ9)
T1 sequence (Q96RQ9 whole entry): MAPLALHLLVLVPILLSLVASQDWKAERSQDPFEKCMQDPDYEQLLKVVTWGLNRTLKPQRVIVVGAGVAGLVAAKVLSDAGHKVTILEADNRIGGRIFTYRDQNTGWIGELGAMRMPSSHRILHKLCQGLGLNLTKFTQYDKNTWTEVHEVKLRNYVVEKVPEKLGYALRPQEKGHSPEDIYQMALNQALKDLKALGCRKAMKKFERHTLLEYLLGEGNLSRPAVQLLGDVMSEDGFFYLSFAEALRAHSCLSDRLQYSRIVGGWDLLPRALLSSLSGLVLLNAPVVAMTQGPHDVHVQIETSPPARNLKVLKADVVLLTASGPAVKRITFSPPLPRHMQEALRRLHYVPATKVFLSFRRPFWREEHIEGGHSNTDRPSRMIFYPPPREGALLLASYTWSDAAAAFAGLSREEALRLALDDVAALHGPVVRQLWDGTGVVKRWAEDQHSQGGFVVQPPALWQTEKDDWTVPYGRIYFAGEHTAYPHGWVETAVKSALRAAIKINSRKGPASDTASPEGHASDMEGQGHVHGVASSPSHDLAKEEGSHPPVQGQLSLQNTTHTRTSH
Test: Inhibition of C-terminal 6-His tagged recombinant human IL4I1 (Gln22 to His567 residues) expressed in CHO cells using Phe/Tyr/Trp as substrate assessed as inhibition of H2O2 production measured after 240 mins by Amplex red and horseradish peroxidase based fluorescence assay

EC50: 23 nM
SMILES: O=C1C(=O)N(C2C[C@@H]3C[C@@H]3C2)CCN1Cc1ccc(-c2nccs2)nn1 (stereo partly specified)
